According to patent US9364467B2 (Salix Pharmaceuticals, Ltd, priority 2012, dated 2016):
≈ marks a conversion by molar mass, not a printed value. Like-named read-outs stand apart in the source and are kept apart here.

Tests used:
S. aureus = test: In vitro activity (MIC) against S. aureus strains; conditions: Staphylococcus aureus
[1] = test system: Enterobacteriaceae spp. strains; test: In vitro activity (MIC) against Enterobacteriaceae spp. strains

Molecule `COC1/C=C/O[C@@]2(C)Oc3c(C)c(O)c4c(O)c(c5c(c4c3C2=O)NC2C=C(C)C=CN52)NC(=O)/C(C)=C\C=C\C(C)C(O)C(C)C(O)C(C)C(O)C1C` (some centres unmarked) [25-desacetyl rifaximin] has an MIC (S. aureus; strain ATCC S. aureus 29213) of 0.5 µg/mL (≈ 0.67 µM), an MIC (S. aureus; strain S. aureus 215) of 16 µg/mL (≈ 21.5 µM) and an MIC (S. aureus; strain S. aureus 234) of 2 µg/mL (≈ 2.68 µM). It also gave an MIC (S. aureus; strain S. aureus 236) of 16 µg/mL (≈ 21.5 µM), an MIC (S. aureus; strain S. aureus 237) of 2 µg/mL (≈ 2.68 µM) and an MIC (S. aureus; strain S. aureus 238) of 0.25 µg/mL (≈ 0.335 µM). It also gave an MIC (S. aureus; strain S. aureus 246) of 2 µg/mL (≈ 2.68 µM), an MIC (S. aureus; strain S. aureus 252) of 4 µg/mL (≈ 5.36 µM) and an MIC (S. aureus; strain S. aureus 253) of 1 µg/mL (≈ 1.34 µM). For the same molecule, the MIC (S. aureus; strain S. aureus 267) was 16 µg/mL (≈ 21.5 µM), the MIC (S. aureus; strain S. aureus 272) was 2 µg/mL (≈ 2.68 µM) and the MIC (S. aureus; strain S. aureus 279) was 0.25 µg/mL (≈ 0.335 µM). It also gave an MIC (S. aureus; strain S. aureus 327) of 4 µg/mL (≈ 5.36 µM), an MIC (S. aureus; strain S. aureus 328) of 2 µg/mL (≈ 2.68 µM) and an MIC (S. aureus; strain S. aureus 329) of 4 µg/mL (≈ 5.36 µM). It also gave an MIC (S. aureus; strain S. aureus 339) of 16 µg/mL (≈ 21.5 µM), an MIC (S. aureus; strain S. aureus 345) of 2 µg/mL (≈ 2.68 µM) and an MIC (S. aureus; strain S. aureus 355) of 2 µg/mL (≈ 2.68 µM). For the same molecule, the MIC (S. aureus; strain S. aureus 406) was > 16 µg/mL, the MIC (S. aureus; strain S. aureus 408) was 2 µg/mL (≈ 2.68 µM) and the MIC (S. aureus; strain S. aureus 409) was 1 µg/mL (≈ 1.34 µM). The MIC (S. aureus; strain S. aureus 416) was 2 µg/mL (≈ 2.68 µM), the MIC (S. aureus; strain S. aureus 425) was > 16 µg/mL and the MIC (S. aureus; strain S. aureus 436) was 2 µg/mL (≈ 2.68 µM). The MIC (S. aureus; strain S. aureus 475) was 4 µg/mL (≈ 5.36 µM), the MIC [1] was 128 µg/mL (≈ 172 µM) and the MIC50 [1] was 128 µg/mL (≈ 172 µM). For the same molecule, the MIC90 [1] was 256 µg/mL (≈ 343 µM), the MIC ([1]; Citrobacter freundii, C. freundii 57) was 128 µg/mL (≈ 172 µM) and the MIC ([1]; Citrobacter freundii, C. freundii 58) was 128 µg/mL (≈ 172 µM). It also gave an MIC ([1]; Citrobacter freundii, C. freundii 65) of 128 µg/mL (≈ 172 µM), an MIC ([1]; Citrobacter freundii, C. freundii 68) of 256 µg/mL (≈ 343 µM) and an MIC ([1]; Citrobacter freundii, C. freundii 69) of 128 µg/mL (≈ 172 µM). The MIC ([1]; Citrobacter freundii, C. freundii 1070) was 128 µg/mL (≈ 172 µM), the MIC ([1]; Citrobacter freundii, C. freundii 1073) was 256 µg/mL (≈ 343 µM) and the MIC ([1]; Citrobacter freundii, C. freundii 1075) was 128 µg/mL (≈ 172 µM). For the same molecule, the MIC ([1]; Enterobacter cloacae, E. cloacae 1) was 128 µg/mL (≈ 172 µM), the MIC ([1]; Enterobacter cloacae, E. cloacae 3) was 128 µg/mL (≈ 172 µM) and the MIC ([1]; Enterobacter cloacae, E. cloacae 8) was 256 µg/mL (≈ 343 µM). For the same molecule, the MIC ([1]; Enterobacter cloacae, E. cloacae 12) was 128 µg/mL (≈ 172 µM), the MIC ([1]; Enterobacter cloacae, E. cloacae 13) was 128 µg/mL (≈ 172 µM) and the MIC ([1]; Enterobacter cloacae, E. cloacae 14) was 128 µg/mL (≈ 172 µM). The MIC ([1]; Enterobacter cloacae, E. cloacae 16) was 128 µg/mL (≈ 172 µM), the MIC ([1]; Enterobacter cloacae, E. cloacae 20) was 128 µg/mL (≈ 172 µM) and the MIC ([1]; Enterobacter cloacae, E. cloacae 321) was 128 µg/mL (≈ 172 µM). It also gave an MIC ([1]; Enterobacter cloacae, E. cloacae 348) of 256 µg/mL (≈ 343 µM), an MIC ([1]; Enterobacter cloacae, E. cloacae 349) of 128 µg/mL (≈ 172 µM) and an MIC ([1]; Enterobacter cloacae, E. cloacae 358) of 128 µg/mL (≈ 172 µM). For the same molecule, the MIC ([1]; Enterobacter cloacae, E. cloacae 367) was 128 µg/mL (≈ 172 µM), the MIC ([1]; Enterobacter cloacae, E. cloacae 369) was 256 µg/mL (≈ 343 µM) and the “Range (MIC)” value ([1]; Enterobacteriaceae spp. strains) was 128 to 256 µg/mL. It also gave an MIC ([1]; Escherichia coli, ATCC E. Coli 25922) of 128 µg/mL (≈ 172 µM), an MIC ([1]; Escherichia coli, E. coli 6) of 128 µg/mL (≈ 172 µM) and an MIC ([1]; Escherichia coli, E. coli 15) of 128 µg/mL (≈ 172 µM). For the same molecule, the MIC ([1]; Escherichia coli, E. coli 34) was 128 µg/mL (≈ 172 µM), the MIC ([1]; Escherichia coli, E. coli 37) was 128 µg/mL (≈ 172 µM) and the MIC ([1]; Escherichia coli, E. coli 41) was 128 µg/mL (≈ 172 µM). For the same molecule, the MIC ([1]; Escherichia coli, E. coli 43) was 128 µg/mL (≈ 172 µM), the MIC ([1]; Escherichia coli, E. coli 44) was 256 µg/mL (≈ 343 µM) and the MIC ([1]; Escherichia coli, E. coli 46) was 128 µg/mL (≈ 172 µM). It also gave an MIC ([1]; Escherichia coli, E. coli 47) of 128 µg/mL (≈ 172 µM), an MIC ([1]; Escherichia coli, E. coli 48) of 256 µg/mL (≈ 343 µM) and an MIC ([1]; Escherichia coli, E. coli 49) of 128 µg/mL (≈ 172 µM). The MIC ([1]; Escherichia coli, E. coli 56) was 128 µg/mL (≈ 172 µM), the MIC ([1]; Escherichia coli, E. coli 62) was 128 µg/mL (≈ 172 µM) and the MIC ([1]; Escherichia coli, E. coli 71) was 128 µg/mL (≈ 172 µM). The MIC ([1]; Escherichia coli, E. coli 90) was 128 µg/mL (≈ 172 µM), the MIC ([1]; Escherichia coli, E. coli 92) was 128 µg/mL (≈ 172 µM) and the MIC ([1]; Escherichia coli, E. coli 93) was 256 µg/mL (≈ 343 µM). The MIC ([1]; Escherichia coli, E. coli 95) was 128 µg/mL (≈ 172 µM), the MIC ([1]; Escherichia coli, E. coli 96) was 128 µg/mL (≈ 172 µM) and the MIC ([1]; Escherichia coli, E. coli 97) was 128 µg/mL (≈ 172 µM). The MIC ([1]; Escherichia coli, E. coli 100) was 128 µg/mL (≈ 172 µM), the MIC ([1]; Escherichia coli, E. coli 102) was 128 µg/mL (≈ 172 µM) and the MIC ([1]; Escherichia coli, E. coli 103) was 128 µg/mL (≈ 172 µM). For the same molecule, the MIC ([1]; Escherichia coli, E. coli 109) was 128 µg/mL (≈ 172 µM), the MIC ([1]; Escherichia coli, E. coli 110) was 256 µg/mL (≈ 343 µM) and the MIC ([1]; Escherichia coli, E. coli 112) was 128 µg/mL (≈ 172 µM). The MIC ([1]; Escherichia coli, E. coli 113) was 128 µg/mL (≈ 172 µM), the MIC ([1]; Escherichia coli, E. coli 117) was 256 µg/mL (≈ 343 µM) and the MIC ([1]; Escherichia coli, E. coli 118) was 128 µg/mL (≈ 172 µM). It also gave an MIC ([1]; Escherichia coli, E. coli 120) of 128 µg/mL (≈ 172 µM), an MIC ([1]; Escherichia coli, E. coli 140) of 256 µg/mL (≈ 343 µM) and an MIC ([1]; Escherichia coli, E. coli 171) of 128 µg/mL (≈ 172 µM). The MIC ([1]; Escherichia coli, E. coli 342) was 128 µg/mL (≈ 172 µM) and the MIC ([1]; Escherichia coli, E. coli 343) was 256 µg/mL (≈ 343 µM).
